According to US9062018B2, “Crytalline form of 13-[(N-tert-butoxycarbonyl)-2′-O-hexanoyl-3-phenylisoserinyl]-10-deacetylbaccatin III” (Indena S.p.A, priority 2010, dated 2015):

Assays:
[1] = Stability data at 25±2° C. and 60±5% relative humidity of amorphous and Form A of compound (1); type: physicochemical; conditions: for HPLC assay (%) of compound (1) with reference to the anhydrous and solvent free basis / IR identification / Potential impurity-HPLC (area %): 10-dehydro compound (1): 25±2° C.; for HPLC assay (%) of compound (1) with reference to the anhydrous and solvent free basis / IR identification / Potential impurity-HPLC (area %): 10-dehydro compound (1) / Specific optical rotation (°) (c = 1 ethanol, at 20° C.): 60±5% relative humidity; for Specific optical rotation (°) (c = 1 ethanol, at 20° C.): storage 25±2° C.
Description: Stability data at 25±2° C. and 60±5% relative humidity of amorphous and Form A of compound (1). The packaging was the same for both solid forms (Amber glass vial+polyethylene bag+vacuum sealed PET/Aluminum/PE multilayer bag).

[2] = ICH stability studies (chemical stability of the solid form); type: physicochemical; conditions: mainly an impurity stemming from oxidation of the 10-position of the baccatin core
Excerpt: Thus it is desirable to find a crystalline form of compound (1) which is chemically and thermodynamically stable. A method for preparing such solid form of compound (1) continually and constantly is also a prerequisite for the development of a robust manufacturing process.

[3] = T = 0, against the reference FTIR figure of the form
[4] = T = 0, amber glass vial + polyethylene bag + vacuum sealed PET/Aluminum/PE multilayer bag

| Structure (SMILES) | HPLC assay (%) of compound (1) with reference to the anhydrous and solvent free basis ([1]; 3 months) [%] | IR identification ([1]; 3 months) | Potential impurity-HPLC (area %): 10-dehydro compound (1) ([1]; 3 months) [% area %] | Specific optical rotation (°) (c = 1 ethanol, at 20° C.) ([1]; 3 months) | HPLC assay (%) of compound (1) with reference to the anhydrous and solvent free basis ([1]; 6 months) [%] | IR identification ([1]; 6 months) | Potential impurity-HPLC (area %): 10-dehydro compound (1) ([1]; 6 months) [% area %] | Specific optical rotation (°) (c = 1 ethanol, at 20° C.) ([1]; 6 months) | Potential impurity-HPLC (area %): 10-dehydro compound (1) ([1]; T = 0) [% area %] | IR identification [1, 3] | HPLC assay (%) of compound (1) with reference to the anhydrous and solvent free basis [1, 4] [%] | Specific optical rotation (°) (c = 1 ethanol, at 20° C.) ([1]; T = 0) | Oxidation of the 10-position of the baccatin core ([1]; solid form on storage) | Chemical stability during ICH stability studies [2] |
| --- | --- | --- | --- | --- | --- | --- | --- | --- | --- | --- | --- | --- | --- | --- |
| CCCCCC(=O)OC(C(=O)OC1CC2(O)C(OC(=O)c3ccccc3)C3C4(OC(C)=O)COC4CC(O)C3(C)C(=O)C(O)C(=C1C)C2(C)C)C(NC(=O)OC(C)(C)C)c1ccccc1 (centres unmarked) [Form A of compound (1), 13-[(N-tert-butoxycarbonyl)-2′-O-hexanoyl-3-phenylisoserinyl]-10-deacetylbaccatin III] | 99.0 | Complies | 0.29 | −46.3 | 99.1 | Complies | 0.29 | −46.3 | 0.29 | Complies with | 99.0 | −46.2 | prevented |  |
| CCCCCC(=O)OC(C(=O)OC1CC2(O)C(OC(=O)c3ccccc3)C3C4(OC(C)=O)COC4CC(O)C3(C)C(=O)C(O)C(=C1C)C2(C)C)C(NC(=O)OC(C)(C)C)c1ccccc1 (centres unmarked) [Amourphous Form of compound (1), 13-[(N-tert-butoxycarbonyl)-2′-O-hexanoyl-3-phenylisoserinyl]-10-deacetylbaccatin III] | 99.0 | Complies | 0.36 | −46.3 | 98.9 | Complie | 0.53 | −46.0 | 0.29 | Complies with | 99.7 | −46.0 |  | problems of chemical stability |
